Measured values from article PMC4704022, “Insights on FXR selective modulation. Speculation on bile acid chemical space in the discovery of potent and selective agonists” (Scientific Reports, 2016).
pEC50: −log10 of the molar value.

What was measured:
FXR [1] = tested on: FXR; set-up: method as in PMID 10360171; conditions: cited from earlier work
GPBAR1 [2] = tested on: GPBAR1; set-up: method as in PMID 25247751; conditions: cited from earlier work
FXR [3] = biological target: T1, FXR (Homo sapiens, UniProt Q96RI1); assay: FXR transactivation luciferase reporter assay in transfected HepG2 cells; format: cell-based; conditions: for FXR transactivation activity (in words): HepG2 cells, compounds at 10 μM, CDCA 10 μM and 6-ECDCA 1 μM as positive controls; for pEC50: HepG2 cells transfected with FXR, luciferase reporter, 100 nM to 10 μM
T1 construct: expressed in transfected cells; host or cells: HepG2
T1 sequence (Q96RI1 1-486): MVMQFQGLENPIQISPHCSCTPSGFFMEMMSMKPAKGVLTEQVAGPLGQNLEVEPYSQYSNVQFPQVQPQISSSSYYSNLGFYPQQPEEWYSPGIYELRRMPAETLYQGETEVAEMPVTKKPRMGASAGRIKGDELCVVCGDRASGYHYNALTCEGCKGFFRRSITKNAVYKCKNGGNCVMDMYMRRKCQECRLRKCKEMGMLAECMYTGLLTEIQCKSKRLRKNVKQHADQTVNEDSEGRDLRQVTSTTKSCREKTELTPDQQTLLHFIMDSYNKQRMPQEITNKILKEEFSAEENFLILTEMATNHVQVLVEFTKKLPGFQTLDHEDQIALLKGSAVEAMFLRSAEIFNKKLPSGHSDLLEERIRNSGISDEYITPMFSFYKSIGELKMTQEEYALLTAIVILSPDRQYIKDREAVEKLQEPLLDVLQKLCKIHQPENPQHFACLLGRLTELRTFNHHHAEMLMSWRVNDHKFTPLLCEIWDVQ
T1 sequence (P19793 1-462 partner): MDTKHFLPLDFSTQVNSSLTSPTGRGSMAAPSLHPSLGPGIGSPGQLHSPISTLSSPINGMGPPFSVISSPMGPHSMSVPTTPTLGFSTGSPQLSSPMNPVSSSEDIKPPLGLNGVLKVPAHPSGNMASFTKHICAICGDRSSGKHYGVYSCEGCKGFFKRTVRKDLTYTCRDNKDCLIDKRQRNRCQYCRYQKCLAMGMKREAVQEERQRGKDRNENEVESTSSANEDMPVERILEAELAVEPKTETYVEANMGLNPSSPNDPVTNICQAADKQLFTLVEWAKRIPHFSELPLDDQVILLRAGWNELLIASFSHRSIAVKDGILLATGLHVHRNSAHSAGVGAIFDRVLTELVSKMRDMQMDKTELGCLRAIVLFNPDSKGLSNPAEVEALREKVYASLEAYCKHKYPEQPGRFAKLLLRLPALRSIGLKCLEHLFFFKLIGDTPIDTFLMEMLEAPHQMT
Method: Figure 6 Transactivation assays on FXR. (A) HepG2 cells were transfected with pSG5-FXR, pSG5-RXR, pCMV-βgal, and p(hsp27)TKLUC vectors. […] Twenty-four hour post transfection cells were stimulated with increasing concentrations of each agent: range from 100 nM to 10 μM.
To evaluate the transcriptional activity of FXR, HepG2 cells were transiently transfected with Fugene HD reagent (Promega) using the followings plasmids: pCMVSPORT-humanFXR, pSG5RXR, p(hsp27)TKLUC and pGL4.70, a plasmid containing the Renilla gene used for luciferase normalization.

GPBAR1 [4] = biological target: T2, GPBAR1 (Homo sapiens, UniProt Q8TDU6); assay: GPBAR1 agonism, CRE-luciferase transactivation assay in transfected HEK-293T cells; format: cell-based; conditions: from FXR and GPBAR1 transactivation results
T2 construct: expressed in transfected cells; host or cells: HEK-293T
T2 sequence (Q8TDU6 1-330): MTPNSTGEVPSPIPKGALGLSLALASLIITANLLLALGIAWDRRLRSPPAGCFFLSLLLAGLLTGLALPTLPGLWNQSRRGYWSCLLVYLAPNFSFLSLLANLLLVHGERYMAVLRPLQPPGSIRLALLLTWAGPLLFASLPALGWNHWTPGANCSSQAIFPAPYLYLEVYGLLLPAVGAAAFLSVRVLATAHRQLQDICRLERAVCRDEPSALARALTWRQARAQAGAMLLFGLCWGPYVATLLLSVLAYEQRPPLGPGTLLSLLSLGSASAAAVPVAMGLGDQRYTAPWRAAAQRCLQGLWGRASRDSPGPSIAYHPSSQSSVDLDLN
Method: (A) HEK-293T cells were co-transfected with GPBAR1 and a reporter gene containing a cAMP responsive element in front of the luciferase gene. Twenty-four hour post transfection cells were stimulated with 7–21 (10 μM). Luciferase activity served as a measure of the rise in intracellular cAMP following activation of GPBAR1. […] Twenty-four hour post transfection cells were stimulated with increasing concentrations of each agent: range from 100 nM to 50 μM. Results are expressed as mean ± standard error.
To investigate GPBAR1 activation, HEK-293T cells were transiently transfected with Fugene HD reagent (Promega) using the following vectors: pCMVSPORT6-human GPBAR1, pGL4.29 (Promega), a reporter vector containing a cAMP response element (CRE) cloned upstream to the luciferase reporter gene luc2P and pGL4.70. […] Dose-response curves were performed in HEK-293T cells transfected as described above and treated with increasing concentrations of 9 and 21 (from 100 nM to 50 μM). […] At 18 h post stimulations, cellular lysate was assayed for luciferase and renilla activities using the Dual-Luciferase Reporter assay system (E1980, Promega). Luminescence was measured using Glomax 20/20 luminometer (Promega). Luciferase activities were normalized with Renilla activities.

OSTα expression = tested on: OSTα expression; set-up: method as in PMID 25247751; conditions: compared with 6-ECDCA; cited from earlier work
FXR [5] = tested on: FXR; set-up: method as in PMID 25247751; conditions: read-out: EC50, FXR transactivation; cited from earlier work
FXR-LBD = biological target: T3, FXR-LBD (Homo sapiens, UniProt Q96RI1); assay: Alphascreen coactivator recruitment assay, FXR-LBD with SRC-1 peptide; format: biochemical; conditions: ligand at 2 μM, effect of 6 set as 100%
T3 construct: 10 nM of purified GST-tagged FXR-LBD protein
T3 sequence (Q96RI1 262-486 limits assumed): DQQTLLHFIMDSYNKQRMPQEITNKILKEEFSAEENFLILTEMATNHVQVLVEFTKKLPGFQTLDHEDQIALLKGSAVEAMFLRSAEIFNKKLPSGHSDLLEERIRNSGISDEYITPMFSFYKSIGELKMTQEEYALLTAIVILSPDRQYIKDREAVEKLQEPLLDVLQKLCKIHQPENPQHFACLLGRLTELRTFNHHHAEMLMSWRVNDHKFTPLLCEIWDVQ
Method: Figure 7 Coactivator recruitment assay measuring a direct interaction of FXR with SRC-1. Anti-GST-coated acceptor beads captured GST-fusion FXR-LBD and the biotinylated-SRC-1 peptide was captured by the streptavidin donor beads. FXR-LBD recruited SRC-1 in the presence of ligand at 2 μM and, upon illumination at 680 nm, chemical energy is transferred from donor to acceptor beads across the complex streptavidin-donor/Src-1-biotin/ligand/GSTFXR-LBD/anti-GST-acceptor and a signal is produced. Results are expressed as percentage of the effect of 6 arbitrarily settled as 100%. NT is referred to the experiment carried out in absence of ligand. Results are expressed as mean ± standard error.
The relative potency of selected members of this novel family was then investigated by a detailed measurement of concentration-response curve of the 3-deoxy sulfate derivative 9, the corresponding carboxylic acid 10, and the 3β-hydroxyl alcohol 15 and carboxylic acid derivative 17, all sharing the 6α/7α configuration, on FXR transactivation. […] In this assay, the ligand induces the recruitment of the coactivator to the LBD of hFXR.
Anti-GST-coated acceptor beads were used to capture the GST-fusion FXR-LBD, whereas the biotinylated-SRC-1 peptide was captured by the streptavidin donor beads. Upon illumination at 680 nm, chemical energy is transferred from donor to acceptor beads across the complex streptavidin-donor/Src-1-biotin/GSTFXR-LBD/anti-GST-acceptor and a signal is produced. The assay was performed in white, low-volume, 384-well Optiplates (PerkinElmer) using a final volume of 25 μL containing final concentrations of 10 nM of purified GST-tagged FXR-LBD protein, 30 nM biotinylated Src-1 peptide, 20 μg/mL anti-GST acceptor beads acceptor beads, and 10 μg/mL of streptavidin donor bead (PerkinElmer). The assay buffer contained 50 mM Tris (pH 7.4), 50 mM KCl, 0.1% BSA, and 1 mM DTT. […] After the addition of the detection mix (acceptor and donor beads), the plates were incubated in the dark for 4 h at room temperature and then were read in an Envision microplate analyzer (PerkinElmer).

PBC patients = conditions: cited from earlier work
NASH patients = tested on: NASH patients; set-up: method as in PMID 25468160; conditions: cited from earlier work

C[C@H](CCC(=O)O)[C@H]1CC[C@H]2[C@@H]3CC[C@@H]4C[C@H](O)CC[C@]4(C)[C@H]3C[C@H](O)[C@]12C [deoxycholic acid]
FXR ligand strength relative to CDCA (in words) (FXR [1]): weaker natural ligands

C[C@H](CCC(=O)O)[C@H]1CC[C@H]2[C@@H]3[C@H](O)C[C@@H]4C[C@@H](O)CC[C@]4(C)[C@H]3CC[C@]12C [iso-CDCA, isochenodeoxycholic acid]
GPBAR1 activity (in words) (GPBAR1 [2]): very weak activity towards GPBAR1

C[C@H](CCC(=O)O)[C@H]1CC[C@H]2[C@@H]3CC[C@@H]4C[C@@H](O)CC[C@]4(C)[C@H]3CC[C@]12C [iso-LCA]
GPBAR1 activity (in words) (GPBAR1 [2]): less potent respect to the cognate LCA

CC[C@@H]1[C@@H](O)C2C3CC[C@H]([C@H](C)CCCO)[C@@]3(C)CCC2[C@@]2(C)CC[C@H](O)C[C@@H]12 (some centres unmarked) [compound 21]
FXR transactivation activity (in words) (FXR [3]): less potent then CDCA in transactivating FXR
Receptor preference FXR versus GPBAR1 (in words) (GPBAR1 [4]): weak but preferential GPBAR1 activator

C[C@H](CCCOS(=O)(=O)O)[C@H]1CCC2C3C(CC[C@@]21C)[C@@]1(C)CCCC[C@H]1C[C@H]3O (stereo partly drawn) [compound 5, 7α-hydroxy-5β-cholan-24-sulfate]
Potency in inducing expression of OSTα (in words) (OSTα expression): comparable to that of 6-ECDCA
pEC50 (FXR [5]): ~5.05

CC[C@H]1[C@@H](O)[C@@H]2[C@H](CC[C@]3(C)[C@@H]([C@H](C)CCCO)CC[C@@H]23)[C@@]2(C)CC[C@H](O)C[C@@H]12 [compound 15, 6α-ethyl-3β,7α-dihydroxy-5β-cholan-24-ol]
pEC50 (FXR [3]): 5.66
FXR transactivation activity (in words) (FXR [3]): potent agonists of FXR
Recruitment of SRC-1 coactivator to FXR-LBD (in words) (FXR-LBD): very potent activity in the recruitment of SRC-1 co-activator

CC[C@H]1[C@@H](O)[C@@H]2[C@H](CC[C@]3(C)[C@@H]([C@H](C)CCC(=O)O)CC[C@@H]23)[C@@]2(C)CC[C@H](O)C[C@@H]12 [compound 17, 6α-ethyl-3β,7α-dihydroxy-5β-cholan-24-oic acid]
FXR transactivation activity (in words) (FXR [3]): potent agonists of FXR
Recruitment of SRC-1 coactivator to FXR-LBD (in words) (FXR-LBD): very potent activity in the recruitment of SRC-1 co-activator

CC[C@H]1[C@@H](O)C2C3CC[C@H]([C@H](C)CCCOS(=O)(=O)O)[C@@]3(C)CCC2[C@@]2(C)CCCC[C@@H]12 (some centres unmarked) [compound 9]
pEC50 (FXR [3]): 5.96
FXR transactivation activity (in words) (FXR [3]): potent agonists of FXR
Receptor preference FXR versus GPBAR1 (in words) (GPBAR1 [4]): preferential FXR modulator with a residual activity on GPBAR1

CC[C@H]1[C@@H](O)[C@@H]2[C@H](CC[C@]3(C)[C@@H]([C@H](C)CCC(=O)O)CC[C@@H]23)[C@@]2(C)CC[C@@H](O)C[C@@H]12 [6-ECDCA, 6-ethylchenodeoxycholic acid]
Drug discontinuation due to exacerbation of itching, patients (PBC patients; PBC patients): 40%
Drug discontinuation, patients (PBC patients; due to pruritus): 40%
Incidence of pruritus, patients (PBC patients; patients with primary biliary cirrhosis): up to 80%
NASH resolution, patients (NASH patients; after 72 weeks, p = 0.08 vs. placebo): 22%
Decrease in HDL-C levels (NASH patients; as compared to placebo): 5%
Increase in LDL-C (NASH patients; as compared to placebo): 16%
Primary histological outcome (NAFLD activity score) and fibrosis score (NASH patients; compared with placebo): significantly improved

C[C@H](CCC(=O)O)[C@H]1CC[C@H]2[C@@H]3CC[C@@H]4C[C@H](O)CC[C@]4(C)[C@H]3CC[C@]12C [lithocholic acid]
FXR ligand strength relative to CDCA (in words) (FXR [1]): weaker natural ligands
